Results reported in patent publication US9593140B2, “Antibacterial tylosin derivatives and methods for their preparation” (Bayer Intellectual Property GmbH, priority 2011, dated 2017).

System: Mannhemia hemolytica KB345
Assay: Paper disc assay, M. hemolytica KB345 (Tilmicosin-sensitivity strain)
Format: cell-based
Conditions: 24 h, Table 2; for zone of inhibition at 1 mg/disc: 1 mg/6 mm disk; for zone of inhibition at 3 mg/disc: 3 mg/6 mm disk; for zone of inhibition at 10 mg/disc: 10 mg/6 mm disk; for zone of inhibition at 30 mg/disc: 30 mg/6 mm disk; for zone of inhibition at 100 mg/disc: 100 mg/6 mm disk
Protocol: (1) Antibacterial Activities Against Mannheimia and Pasteurella were Determined by the Following Steps:
1) M. hemolytica KB345 (Tilmicosin-sensitivity strain) and M. hemolytica KB346 (Tilmicosin-low sensitivity strain) were provided. KB 345 strain stored at −80° C. was seeded to BHIB agar medium (10 mL) by using Microbank beads (Pro-Lab) and platinum nail. After statically incubating the KB 345 strain for 24 hours at 37° C., it was seeded to maintaining slant BHIB agar medium (7 mL) by using platinum loop, further statically incubated for 24 hours at 37° C. to obtain slant. One platinum loop of KB 345 strain stored at the slant was inoculated into a large test tube charged with BHIB liquid medium (10 mL) and then incubated for 24 hours at 37° C. with shaking.
2) A paper disc (ADVANTEC, Φ:6 mm) was impregnated with a solution of test compound and dried under reduced pressure.
3) To a melted BHIB agar medium was inoculated 1% of the broth obtained from step 1) above to prepare a test plate. After the medium set, the paper disc prepared in step 2) above was put on the plate and it was incubated at 37° C.
4) After one day, the inhibition zone diameter and clarity (A to E) were determined.

SMILES | zone of inhibition at 1 mg/disc [mm] | zone of inhibition at 3 mg/disc [mm] | zone of inhibition at 10 mg/disc [mm] | zone of inhibition at 30 mg/disc [mm] | zone of inhibition at 100 mg/disc [mm]
CCCNC[C@]1(O)[C@H](C)O[C@@H](O[C@H]2[C@H](C)[C@@H](O[C@@H]3O[C@H](C)C[C@H](N(C)C)[C@H]3O)[C@](C)(O)C[C@@H](C)CN[C@H](C)[C@@H](O)[C@](C)(O)[C@@H](CC)OC(=O)[C@@H]2C)C[C@@]1(C)OC [Tulathromycin, reference compound] | 12.5 | 16 | 18 |  | 
CC[C@H]1OC(=O)C[C@@H](O)[C@H](C)[C@@H](O[C@@H]2O[C@H](C)[C@@H](O[C@H]3C[C@@](C)(O)[C@@H](O)[C@H](C)O3)[C@H](N(C)C)[C@H]2O)[C@@H](CC=O)C[C@@H](C)C(=O)/C=C/C(C)=C/[C@@H]1CO[C@@H]1O[C@H](C)[C@@H](O)[C@@H](OC)[C@H]1OC [Tylosin] |  |  |  | 10.5 | 11
CC[C@H]1OC(=O)C[C@@H](O)[C@H](C)[C@@H](O[C@@H]2OC(C)[C@@H](O)C(N(C)C)C2O)[C@@H](CCn2cc(-c3cccnc3)nn2)C[C@@H](C)C(=O)/C=C/C(C)=C/[C@@H]1CO[C@@H]1OC(C)[C@@H](O)C(OC)C1OC (some centres unmarked) [YT16, 20-(4-(pyridine-3-yl)-1H-1,2,3-triazol-1-yl)-20-deoxodesmycosin] |  | 11.5 | 14.5 | 16.5 | 19
CC[C@H]1OC(=O)C[C@@H](O)[C@H](C)[C@@H](O[C@@H]2OC(C)[C@@H](O)C(N(C)C)C2O)[C@@H](CCn2cc(-c3cccc(N)c3)nn2)C[C@@H](C)C(=O)/C=C/C(C)=C/[C@@H]1CO[C@@H]1OC(C)[C@@H](O)C(OC)C1OC (some centres unmarked) [YT17] |  | 12 | 14 | 18 | 19.5
CC[C@H]1OC(=O)C[C@@H](O)[C@H](C)[C@@H](O[C@@H]2OC(C)[C@@H](O)C(N(C)C)C2O)[C@@H](CCn2cc(-c3ccc(N)cc3)nn2)C[C@@H](C)C(=O)/C=C/C(C)=C/[C@@H]1CO[C@@H]1OC(C)[C@@H](O)C(OC)C1OC (some centres unmarked) [YT18] |  | 11 | 14.5 | 17 | 19.5
CCCCc1cn(CC[C@H]2C[C@@H](C)C(=O)/C=C/C(C)=C/[C@H](CO[C@@H]3OC(C)[C@@H](O)C(OC)C3OC)[C@@H](CC)OC(=O)C[C@@H](O)[C@H](C)[C@H]2O[C@@H]2OC(C)[C@@H](O)C(N(C)C)C2O)nn1 (some centres unmarked) [YT20, 20-(4-butyl-1H-1,2,3-triazol-1-yl)-20-deoxodesmycosin] | 9 | 11.5 | 16 | 17.5 | 20
CC[C@H]1OC(=O)C[C@@H](O)[C@H](C)[C@@H](O[C@@H]2OC(C)[C@@H](O)C(N(C)C)C2O)[C@@H](CCn2cc(-c3ccc(-c4ccccc4)cc3)nn2)C[C@@H](C)C(=O)/C=C/C(C)=C/[C@@H]1CO[C@@H]1OC(C)[C@@H](O)C(OC)C1OC (some centres unmarked) [YT21] | 11.5 | 13.5 | 15.5 | 18 | 19
CCOC(=O)c1cn(CC[C@H]2C[C@@H](C)C(=O)/C=C/C(C)=C/[C@H](CO[C@@H]3OC(C)[C@@H](O)C(OC)C3OC)[C@@H](CC)OC(=O)C[C@@H](O)[C@H](C)[C@H]2O[C@@H]2OC(C)[C@@H](O)C(N(C)C)C2O)nn1 (some centres unmarked) [YT22, 20-(4-ethoxycarbonyl-1H-1,2,3-triazol-1-yl)-20-deoxodesmycosin] | 7.5 | 11.5 | 14.5 | 18 | 21
CC[C@H]1OC(=O)C[C@@H](O)[C@H](C)[C@@H](O[C@@H]2OC(C)[C@@H](O)C(N(C)C)C2O)[C@@H](CCn2cc(-c3ccc(Oc4ccccc4)cc3)nn2)C[C@@H](C)C(=O)/C=C/C(C)=C/[C@@H]1CO[C@@H]1OC(C)[C@@H](O)C(OC)C1OC (some centres unmarked) [YT24, 20-(4-(4-phenoxyphenyl)-1H-1,2,3-triazol-1-yl)-20-deoxodesmycosin] | 8.5 | 12 | 14.5 | 17 | 18
CC[C@H]1OC(=O)C[C@@H](O)[C@H](C)[C@@H](O[C@@H]2OC(C)[C@@H](O)C(N(C)C)C2O)[C@@H](CCn2cc(-c3cc(C)c(C)cc3C)nn2)C[C@@H](C)C(=O)/C=C/C(C)=C/[C@@H]1CO[C@@H]1OC(C)[C@@H](O)C(OC)C1OC (some centres unmarked) [YT25, 20-(4-(2,4,5-trimethylphenyl)-1H-1,2,3-triazol-1-yl)-20-deoxodesmycosin] | 8 | 12 | 14 | 17 | 18.5
CC[C@H]1OC(=O)C[C@@H](O)[C@H](C)[C@@H](O[C@@H]2OC(C)[C@@H](O)C(N(C)C)C2O)[C@@H](CCn2cc(-c3ccc(C(C)(C)C)cc3)nn2)C[C@@H](C)C(=O)/C=C/C(C)=C/[C@@H]1CO[C@@H]1OC(C)[C@@H](O)C(OC)C1OC (some centres unmarked) [YT26, 20-(4-(4-t-butylphenyl)-1H-1,2,3-triazol-1-yl)-20-deoxodesmycosin] |  | 9 | 11.5 | 14 | 16
CCCCCOc1ccc(-c2cn(CC[C@H]3C[C@@H](C)C(=O)/C=C/C(C)=C/[C@H](CO[C@@H]4OC(C)[C@@H](O)C(OC)C4OC)[C@@H](CC)OC(=O)C[C@@H](O)[C@H](C)[C@H]3O[C@@H]3OC(C)[C@@H](O)C(N(C)C)C3O)nn2)cc1 (some centres unmarked) [YT27, 20-(4-(4-pentyloxyphenyl)-1H-1,2,3-triazol-1-yl)-20-deoxodesmycosin] |  | 9 | 11 | 13 | 16
CC[C@H]1OC(=O)C[C@@H](O)[C@H](C)[C@@H](O[C@@H]2OC(C)[C@@H](O)C(N(C)C)C2O)[C@@H](CCn2cc(Cn3nnc4ccccc43)nn2)C[C@@H](C)C(=O)/C=C/C(C)=C/[C@@H]1CO[C@@H]1OC(C)[C@@H](O)C(OC)C1OC (some centres unmarked) [YT28, 20-(4-(1-methyl-1H-benzotriazole)-1H-1,2,3-triazol-1-yl)-20-deoxodesmycosin] |  | 11 | 13 | 16 | 19
CC[C@H]1OC(=O)C[C@@H](O)[C@H](C)[C@@H](O[C@@H]2OC(C)[C@@H](O)C(N(C)C)C2O)[C@@H](CCn2cc(CNC)nn2)C[C@@H](C)C(=O)/C=C/C(C)=C/[C@@H]1CO[C@@H]1OC(C)[C@@H](O)C(OC)C1OC (some centres unmarked) [YT30, 20-(4-(N-methyl-methylamine)-1H-1,2,3-triazol-1-yl)-20-deoxodesmycosin] |  |  |  |  | 10
CC[C@H]1OC(=O)C[C@@H](O)[C@H](C)[C@@H](O[C@@H]2OC(C)[C@@H](O)C(N(C)C)C2O)[C@@H](CCn2cc(C(C)(C)O)nn2)C[C@@H](C)C(=O)/C=C/C(C)=C/[C@@H]1CO[C@@H]1OC(C)[C@@H](O)C(OC)C1OC (some centres unmarked) [YT32, 20-(4-(1-methyl-1-hydroxylethyl)-1H-1,2,3-triazol-1-yl)-20-deoxodesmycosin] |  |  | 9 | 14 | 16
CC[C@H]1OC(=O)C[C@@H](O)[C@H](C)[C@@H](O[C@@H]2OC(C)[C@@H](O)C(N(C)C)C2O)[C@@H](CCn2cc(CC(C)C)nn2)C[C@@H](C)C(=O)/C=C/C(C)=C/[C@@H]1CO[C@@H]1OC(C)[C@@H](O)C(OC)C1OC (some centres unmarked) [YT33, 20-(4-(2-methyl-propyl)-1H-1,2,3-triazol-1-yl)-20-deoxodesmycosin] |  | 13 | 16 | 17 | 20
CCCCCCCCCc1cn(CC[C@H]2C[C@@H](C)C(=O)/C=C/C(C)=C/[C@H](CO[C@@H]3OC(C)[C@@H](O)C(OC)C3OC)[C@@H](CC)OC(=O)C[C@@H](O)[C@H](C)[C@H]2O[C@@H]2OC(C)[C@@H](O)C(N(C)C)C2O)nn1 (some centres unmarked) [YT34, 20-(4-nonyl-1H-1,2,3-triazol-1-yl)-20-deoxodesmycosin] |  | 11 | 13 | 14 | 15
CC[C@H]1OC(=O)C[C@@H](O)[C@H](C)[C@@H](O[C@@H]2OC(C)[C@@H](O)C(N(C)C)C2O)[C@@H](CCn2cc(-c3cnc4ccccc4c3)nn2)C[C@@H](C)C(=O)/C=C/C(C)=C/[C@@H]1CO[C@@H]1OC(C)[C@@H](O)C(OC)C1OC (some centres unmarked) [YT35, 20-(4-(3-quinoline)-1H-1,2,3-triazol-1-yl)-20-deoxodesmycosin] |  | 14 | 17 | 19 | 21
CC[C@H]1OC(=O)C[C@@H](O)[C@H](C)[C@@H](O[C@@H]2OC(C)[C@@H](O)C(N(C)C)C2O)[C@@H](CCn2cc(CCCCO)nn2)C[C@@H](C)C(=O)/C=C/C(C)=C/[C@@H]1CO[C@@H]1OC(C)[C@@H](O)C(OC)C1OC (some centres unmarked) [YT36, 20-(4-(4-butanol)-1H-1,2,3-triazol-1-yl)-20-deoxodesmycosin] |  |  |  |  | 9
